Experimental data published in patent US8242120B2 (priority 2007, dated 2012).
Entries after “also recorded” stand apart in the source; their conditions may differ.

What was measured:
[1] = test system: Avian influenza A strain H5N1 virus; assay type: cell-based
[2] = test system: Venezuelan equine encephalitis virus (TC-83 vaccine strain); set-up: species or system C3H/HeN mice; details: in vivo
CTP synthase = details: cited from earlier work
flu A (DUCK)-H5N1 virus = assay type: cell-based, Avian influenza A H5N1
[3] = mouse, in vivo
[4] = test system: Venezuelan Equine Encephalitis (VEE); assay type: cell-based, Venezuelan equine encephalitis virus

SMILES: Nc1ccn([C@@H]2C[C@H](CO)[C@@H](O)[C@H]2O)c(=O)n1 [(−) carbodine, (1R,2S,3R,4R)-1-[2,3-Dihydroxy-4-(hydroxymethyl)-cyclopentan-1-yl]cytosine]
- activity as an inhibitor of Avian Influenza A strain H5N1 [1]: good activity
- activity against vaccine strain (TC-83) of VEEV in C3H/HeN mouse model [2]: active
- all disease signs measured ([2]; mouse): effective in significantly improving
- mean day to death ([2]; mouse): efficacious in significantly improving; also recorded: effective in significantly improving
- reduction in brain virus titer ([2]; mouse): 1 log
- survival ([2]; mouse): efficacious in significantly improving; also recorded: effective in significantly improving
- weight gain ([2]; mouse): efficacious in significantly improving; also recorded: effective in significantly improving
- inhibition of CTP synthase that converts UTP to CTP (CTP synthase): known inhibitor
- activity against H5N1 in vitro (flu A (DUCK)-H5N1 virus): good activity
- weight loss in sham infected mice [3]: weight loss was observed
- activity against VEE in vitro [4]: good activity
